Test results: publication PMC8703884, “Synthesis and Biological Evaluation of S-, O- and Se-Containing Dispirooxindoles” (Molecules, 2021)
Each block holds one compound with its values, some of them ahead of it.

Columns and labels:
[1] = tested on: HEK293 cells; design: method as in PMID 21058726; settings: 24 h cytotoxicity, MTT assay; cited from earlier work
[2] = tested on: LNCaP cells (androgen-dependent); design: method as in PMID 28339198; settings: mitogenesis inhibition, dye assay, WST-8; cited from earlier work
[3] = tested on: HCT116^+/+ human colon carcinoma cells; design: method as in PMID 28339198; settings: cited from earlier work
[4] = tested on: PC3 human prostate adenocarcinoma cells (p53-null); design: method as in PMID 28339198; settings: mitogenesis inhibition, dye assay, WST-8; cited from earlier work
[5] = tested on: HCT116^−/− human colon carcinoma cells; design: method as in PMID 28339198; settings: cited from earlier work
[6] = tested on: HCT116 cells; design: method as in PMID 24997575; settings: MTT assay; cited from earlier work
[7] = tested on: MCF7 cells (hormone-dependent); design: method as in PMID 23802716; settings: cited from earlier work
[8] = tested on: PC3 cell line; design: method as in PMID 23802716; settings: cited from earlier work
[9] = tested on: A549 human lung adenocarcinoma epithelial cell line; assay: MTT cytotoxicity test, A549; assay type: cell-based; settings: 72 h incubation
[10] = tested on: p53 expression level in p53wt A549 cell line; assay: p53 activation, β-galactosidase reporter construction; settings: high concentrations (>100 μM), 24 h
Protocol: The β-galactosidase reporter construction equipped with the p53 promotor frame [46] was used to assess the p53 expression level in p53wt A549 cell line. The compounds were tested in the concentration range of 0.5–120 μM with triple dilution steps. The incubation time was 24 h. To take into account the toxic effect of the molecules, the output signal was normalized considering the number of the cells estimated by MTT test with the same incubation tome (24 h). The output was statistically significant if the background signal was exceeded two or more times.

[11] = MTT cytotoxicity test, Hek293T; assay type: cell-based; settings: human, 72 h incubation
[12] = tested on: LNCaP human prostate cancer cell line; assay: MTT cytotoxicity test, LNCaP; assay type: cell-based; settings: MTT test; for CC50: Homo sapiens, LNCaP, read-out: CC50, LNCaP
[13] = tested on: PC3 human prostate cancer cell line; assay: MTT cytotoxicity test, PC3; assay type: cell-based; settings: Homo sapiens
[14] = MTT cytotoxicity test, VA13; assay type: cell-based; settings: human, VA13 SV40-transformed normal lung fibroblast cells, 72 h incubation
Protocol: (§1) MTT test. […] Assays were performed in triplicates.

[15] = tested on: MCF7 breast cancer cell line; assay: MTT cytotoxicity test, MCF7; assay type: cell-based; settings: Homo sapiens, 72 h incubation
Protocol: as §1

[16] = tested on: HCT116^−/− human colon cancer cells (p53 negative); assay: MTT cytotoxicity test, HCT116 p53-/-; settings: HCT-116, read-out: CC50, HCT^−/−
Description: (§2) The used models included human prostate cancer cell lines LNCaP and PC3, breast cancer cell line (MCF-7), human colon cancer cells (HCT116^+/+, p53 positive, p53^+/+ and HCT116^−/−, p53 negative, p53^−/−), human lung adenocarcinoma epithelial cell line (A549), SV40-transformed normal human lung fibroblast cells (VA13), as well as human embryonic kidney 293 cells (Hek293) stably expressing SV40 large T antigen (Hek293T). The cytotoxicity of the evaluated molecules was properly assessed using a MTT assay based on the modified approach reported by Ferrari and colleagues.
(§3) To further elucidate the dominant mode of action, we used HCT116^+/+ and HCT116^−/− cells by analogy with the paper published by Shangary and colleagues. This isogenic cell line is commonly applied to investigate the p53/MDM2-dependent mode of action.
(§4) MTT test. The MTT assay was carried out according to [35] with few modifications; 3000 Cells (for HEK293T, A549 and MCF7cell lines) or 4000 cells (for VA13 cell line) were seeded in each well of a 96-well plate. […] Assays were performed in triplicates. […] The MTT solution was then discarded and 140 µL of DMSO was added. The plates were swayed on a shaker (60 rpm) to solubilize the formazan. […] The analysis of cytotoxicity and the estimation of IC50 values were carried out with the built-in functions in the GraphPad Prism program (GraphPad Software, Inc., San Diego, CA) P53 activation.

[17] = tested on: HCT116^+/+ human colon cancer cells (p53 positive); assay: MTT cytotoxicity test, HCT116 p53+/+; settings: Homo sapiens, HCT-116, read-out: CC50, HCT^+/+
Description: as §2, §3, §4

Structure (SMILES): O=C1C2CCC3(C(=O)Nc4ccccc43)C2C(=O)N1Cc1ccc(Cl)cc1 (centres unmarked) [Compound IV]
- CC50 [1]: 0.44 µM

Structure (SMILES): CCN1[C@@H](C(=O)CC23CCC(C(=O)O)(CC2)CC3)[C@H](c2ccc(F)c(Cl)c2)C2(C(=O)Nc3cc(Cl)ccc32)C12CCCCC2 (some centres unmarked) [II]
- IC50 [2]: 0.018 ± 0.013 µM
- selectivity towards p53-positive cells ([3]; HCT116^+/+ vs HCT116^−/−): 80 fold
- IC50 [3]: 0.1 µM
- IC50 [4]: 22 µM
- IC50 [5]: 8 µM

Structure (SMILES): CC(C)(C)CC1N[C@@H](C(=O)Nc2ccc(C(N)=O)cc2)[C@H](c2ccc(F)c(Cl)c2)C12C(=O)Nc1cc(Cl)ccc12 (some centres unmarked) [Compound V]
- IC50 [6]: 0.09 µM

Structure (SMILES): CCOC(=O)C1CSC2(C(=O)N(C)c3ccc(Br)cc32)N1C(=O)C1CCCCC1 (centres unmarked) [VI]
- IC50 [7]: 0.04 µM
- IC50 [8]: 0.41 µM

Structure (SMILES): CN1CC2(NC(=O)N(c3ccc(F)c(Cl)c3)C2=O)C2(C1)C(=O)Nc1ccc(Cl)cc12 (centres unmarked) [Compound 9r, 5″-Chloro-1-(3-chloro-4-fluorophenyl)-1′-methyldispiro[imidazolidine-4,3′-pyrrolidine-4′,3″-indoline]-2,2″,5-trione]
- CC50 [9]: 35.3 ± 17.7 µM
- p53 activation [10]: 2.1 fold
- CC50 at 72 h [11]: 15.1 ± 1.2 µM
- CC50 [12]: 19.6 ± 1.8 µM
- CC50, LNCaP [12]: good activity
- selectivity on LNCaP cells over PC3 cells [12]: selective
- CC50 [13]: > 50 µM

- melting point: 273 to 274 °C
Structure (SMILES): CN1CC2(NC(=S)N(Cc3cccc(Cl)c3)C2=O)C2(C1)C(=O)Nc1ccccc12 (centres unmarked) [Compound 4o, 1′-Methyl-1-(3-chlorobenzyl)-2-thioxodispiro[imidazolidine-4,3′-pyrrolidine-4′,3″-indoline]-2″,5-dione]
- CC50 [9]: 53.4 ± 11.2 µM
- CC50 at 72 h [11]: 48 ± 5.3 µM
- CC50 [12]: > 100 µM
- CC50 at 72 h [14]: 36.3 ± 3.2 µM
- CC50 [15]: 23.2 ± 3.6 µM
- CC50 [16]: > 100 µM
- CC50 [17]: > 100 µM
- CC50 [13]: > 100 µM

- melting point: 189 to 190 °C
Structure (SMILES): CN1CC2(NC(=S)N(Cc3ccccc3)C2=O)C2(C1)C(=O)Nc1ccccc12 (centres unmarked) [Compound 4a, 1′-Methyl-1-benzyl-2-thioxodispiro[imidazolidine-4,3′-pyrrolidine-4′,3″-indoline]-2″,5-dione]
- CC50 [9]: 20.3 ± 3.7 µM
- CC50 at 72 h [11]: 9.8 ± 1.6 µM
- CC50 [12]: 12.5 ± 2.1 µM
- selectivity on LNCaP cells over PC3 cells [12]: moderate selectivity
- CC50 at 72 h [14]: 16.1 ± 2.5 µM
- CC50 [15]: 31.3 ± 6.7 µM
- CC50 [16]: 40.1 ± 19.1 µM
- CC50 [17]: 66.2 ± 11.7 µM
- CC50 [13]: 30.1 ± 9.1 µM

- melting point: 239 to 240 °C
Structure (SMILES): CN1CC2(NC(=S)N(c3ccc(Cl)cc3)C2=O)C2(C1)C(=O)Nc1ccc(Cl)cc12 (centres unmarked) [Compound 4l, 5″-Chloro-1′-methyl-1-(4-chlorophenyl)-2-thioxodispiro[imidazolidine-4,3′-pyrrolidine-4′,3″-indoline]-2″,5-dione]
- CC50 [9]: 37 ± 6.5 µM
- CC50 at 72 h [11]: 34 ± 3.4 µM
- CC50 [12]: 4.4 ± 0.67 µM
- CC50 at 72 h [14]: 30.4 ± 3 µM
- CC50 [15]: 19.1 ± 4.1 µM
- CC50 [16]: 57.1 ± 5.76 µM
- CC50 [17]: 42.5 ± 9.1 µM
- CC50 [13]: 2.2 ± 0.7 µM

- melting point: 155 to 157 °C
Structure (SMILES): Cc1ccc(N2C(=O)C3(CN(C)CC34C(=O)Nc3ccccc34)NC2=S)cc1 (centres unmarked) [Compound 4i, 1′-Methyl-1-(p-tolyl)-2-thioxodispiro[imidazolidine-4,3′-pyrrolidine-4′,3″-indoline]-2″,5-dione]
- CC50 [9]: > 100 µM
- CC50 at 72 h [11]: > 100 µM
- CC50 [12]: > 100 µM
- CC50 at 72 h [14]: > 100 µM
- CC50 [15]: 88.2 ± 32.2 µM
- CC50 [16]: > 100 µM
- CC50 [17]: > 100 µM
- CC50 [13]: > 100 µM
